Source: patent US20090163528A1, “Pharmaceutical composition having analgesic effects” (priority 2004, published 2009)
Where two headings read alike, the source gives them in different places.

Legend:
Assay type in all cases: in vivo
[1] = test system: Kunming breed mice; assay: Body twisting test, mixtures of fuziline, benzoylmesaconitine, mesaconitine and hypaconitine in different proportions (Test 4); settings: aspirin 200 mg/kg stomach perfusion
Experimental: Enteric coated aspirin tablet, white, 25 mg/pill, supplied by Xuzhou Enhua Pharmaceuticals Co., Ltd, batch No.: 20050312; take 4 pills of enteric coated aspirin tablet; grind and add with distilled water up to 10 ml to compound 10 mg/ml of solution composed of aspirin;
Divide at random the 70 Kunming breed mice, weighing 18-22 g, into 7 groups with equal number of each gender and each group, with the first group as the negative control group and the second group as the positive control group; perfuse the stomach of the first group mice with 0.2 ml/10 g of 10% alcohol; perfuse the stomach of the second group mice with 200 mg/kg (20 times the practice dose) of aspirin; the 3rd, 4th, 5th, 6th and 7th group are groups in five different proportions of […], benzoylmesaconitine, mesaconitine and hypaconitine; perfuse the groups with solution in five different proportions of […], benzoylmesaconitine, mesaconitine and hypaconitine; […]; inject into the stomach cavity of the mice with 0.2 ml of 0.6% glacial acetic acid 30 minutes after administration; observe the number of body twisting of each mouse 5 to 10 minutes after the injection of acetic acid; make statistical analysis of the data to calculate the increasing rate of pain threshold and the standard deviation of each group; compare the intergroup differences between each drug group and the negative control group with t-test.

[2] = test system: Kunming breed mice; assay: Body twisting test, mixtures of fuziline and hypaconitine in different proportions (Test 6); settings: aspirin 200 mg/kg stomach perfusion
[3] = test system: Kunming breed mice; assay: Body twisting test, mixtures of fuziline and benzoylmesaconitine in different proportions (Test 7); settings: aspirin 200 mg/kg stomach perfusion
[4] = test system: Kunming breed mice; assay: Body twisting test, skin administration of fuziline (Test 9); settings: 200 mg/kg ig.; acetic acid 30 minutes after
Experimental: Divide randomly the 40 Kunming breed mice, weighing 18-22 g, into 4 groups with equal number of each gender and each group. […] The first group is the negative control group. Smear an even layer of Vaseline plaster 0.1 g/piece onto the hair-disposed area of the of negative control group mice, covered lightly with a piece of gauze (1.5 cm×1.5 cm). The second group, as the positive control group is given stomach perfusion with 200 mg/kg of aspirin (20 times the practice use). […] Except that the mice of the second group are injected into the stomach cavity with 0.6% glacial acetic acid solution 30 minutes after the smearing, the mice of all other groups are injected into the stomach cavity with 0.6% glacial acetic acid solution 1.5 hours after the smearing; observe the number of body twisting of each mouse 5 to 10 minutes after the injection; make statistical analysis of the data to calculate the increasing rate of pain threshold and the standard deviation of each group; compare the intergroup differences between each drug group and the negative control group with t-test.

[5] = test system: Kunming breed mice; settings: aspirin 200 mg/kg stomach perfusion
[6] = test system: Kunming breed mice; assay: Body twisting test, intramuscular injection of fuziline (Test 8); settings: 200 mg/kg ig.
[7] = test system: Kunming breed mice; settings: 200 mg/kg stomach perfusion

## CC(=O)Oc1ccccc1C(=O)O [Aspirin, aspirin]
[1]
  Body twisting number ( x ± SD): 3.3 ± 3.2
  Pain suppression rate: 88.0%
[2]
  Body twisting number ( x ± SD): 3.1 ± 3.3
  Pain suppression rate: 82.7%
[3]
  Body twisting number ( x ± SD): 3.1 ± 3.3
  Pain suppression rate: 82.7%
[4]
  Body twisting number ( x ± SD): 5.1 ± 6.0
  Pain suppression rate: 81.6%
[5]
  Body twisting number ( x ± SD): 3.0 ± 3.3
  Pain suppression rate: 82.7%
[6]
  Body twisting number ( x ± SD): 5.1 ± 6.0
  Pain suppression rate: 81.6%
[7]; Table 2
  Body twisting number ( χ ± SD): 3.1 ± 3.3
  Pain suppression rate: 90.96%
[7]; Table 3
  Body twisting number ( χ ± SD): 3.1 ± 3.2
  Pain suppression rate: 92.11%
